Data reported in US10882012B2, “Process for producing a nano resveratrol microemulsion system” (priority 2018, dated 2021).

Test: Water solubility / water-dispersing ability
Type: physicochemical
Settings: dispersed in water, bottle A versus bottle B, visual

For Oc1ccc(C=Cc2cc(O)cc(O)c2)cc1 [known 99% resveratrol, resveratrol], the “Water-dispersing ability (FIG. 1)” value was “insoluble in water”.
